Experimental data published in ChEMBL document CHEMBL5608207, “Development of narrow-spectrum topoisomerase-targeting antibacterials against mycobacteria” (Eur J Med Chem, 2024).
Converted amounts (≈) assume the structure as drawn. The source made the active and inactive calls. The rule behind the calls is not given here.

Key:
[1] = tested on: Mycobacterium tuberculosis; assay: (§1) Antimycobacterial activity against GFP-expressing Mycobacterium tuberculosis H37Rv infected in PMA-treated THP-1 cells assessed as bacterial viability at 10 uM pre-infected for 3 hrs prior to gentamycin addition for 1 hr followed by washout and compound addition measured after 4 days by fluorescence microscopic analysis (reference value: 100%); format: functional; conditions: time 4 day
[2] = tested on: Mycobacterium tuberculosis; assay: as §1, with “number of viable macrophages” for “bacterial viability”, “analysis” for “analysis (reference value: 100%)”; format: functional; conditions: time 4 day
[3] = tested on: Mycolicibacterium smegmatis; assay: Antimycobacterial activity against Mycobacterium smegmatis MC2 incubated for 2 days by resazurin reduction microplate assay; format: functional; conditions: MC2, 48 h, time 2 day
[4] = tested on: Mycobacteroides abscessus; assay: Antimycobacterial activity against Mycobacterium abscessus RIVM incubated for 1 day by resazurin reduction microplate assay; format: functional; conditions: 24 h
[5] = tested on: Mycobacterium tuberculosis; assay: Antimycobacterial activity against Mycobacterium tuberculosis H37Rv ATCC 25618 assessed as reduction in viability incubated for 6 days by resazurin reduction microplate assay; format: functional; conditions: H37Rv ATCC 25618, 144 h, time 6 day
[6] = tested on: Staphylococcus aureus; assay: Antibacterial activity against Staphylococcus aureus ATCC 29213 incubated for 18 hrs by serial broth microdilution method; format: functional
[7] = tested on: Escherichia coli; assay: Antibacterial activity against Escherichia coli ATCC 25922 incubated for 18 hrs by serial broth microdilution method; format: functional
[8] = tested on: Pseudomonas aeruginosa; assay: Antibacterial activity against Pseudomonas aeruginosa ATCC 27853 incubated for 18 hrs by serial broth microdilution method; format: functional
[9] = tested on: Acinetobacter baumannii; assay: Antibacterial activity against Acinetobacter baumannii ATCC17978 incubated for 18 hrs by serial broth microdilution method; format: functional
[10] = tested on: Klebsiella pneumoniae; assay: Antibacterial activity against Klebsiella pneumoniae ATCC10031 incubated for 18 hrs by serial broth microdilution method; format: functional
[11] = tested on: Enterobacter cloacae; assay: Antibacterial activity against Enterobacter cloacae ATCC13047 incubated for 18 hrs by serial broth microdilution method; format: functional
[12] = biological target: DNA topoisomerase 2-alpha (Homo sapiens) (UniProt P11388); assay: Inhibition of human DNA topoisomerase II alpha assessed as residual activity at 100 uM using supercoiled pNO1 plasmid as substrate incubated for 30 mins by diamond dye staining based fluorescence microplate reader assay relative to control
Sequence of DNA topoisomerase 2-alpha (Homo sapiens) (P11388 whole entry): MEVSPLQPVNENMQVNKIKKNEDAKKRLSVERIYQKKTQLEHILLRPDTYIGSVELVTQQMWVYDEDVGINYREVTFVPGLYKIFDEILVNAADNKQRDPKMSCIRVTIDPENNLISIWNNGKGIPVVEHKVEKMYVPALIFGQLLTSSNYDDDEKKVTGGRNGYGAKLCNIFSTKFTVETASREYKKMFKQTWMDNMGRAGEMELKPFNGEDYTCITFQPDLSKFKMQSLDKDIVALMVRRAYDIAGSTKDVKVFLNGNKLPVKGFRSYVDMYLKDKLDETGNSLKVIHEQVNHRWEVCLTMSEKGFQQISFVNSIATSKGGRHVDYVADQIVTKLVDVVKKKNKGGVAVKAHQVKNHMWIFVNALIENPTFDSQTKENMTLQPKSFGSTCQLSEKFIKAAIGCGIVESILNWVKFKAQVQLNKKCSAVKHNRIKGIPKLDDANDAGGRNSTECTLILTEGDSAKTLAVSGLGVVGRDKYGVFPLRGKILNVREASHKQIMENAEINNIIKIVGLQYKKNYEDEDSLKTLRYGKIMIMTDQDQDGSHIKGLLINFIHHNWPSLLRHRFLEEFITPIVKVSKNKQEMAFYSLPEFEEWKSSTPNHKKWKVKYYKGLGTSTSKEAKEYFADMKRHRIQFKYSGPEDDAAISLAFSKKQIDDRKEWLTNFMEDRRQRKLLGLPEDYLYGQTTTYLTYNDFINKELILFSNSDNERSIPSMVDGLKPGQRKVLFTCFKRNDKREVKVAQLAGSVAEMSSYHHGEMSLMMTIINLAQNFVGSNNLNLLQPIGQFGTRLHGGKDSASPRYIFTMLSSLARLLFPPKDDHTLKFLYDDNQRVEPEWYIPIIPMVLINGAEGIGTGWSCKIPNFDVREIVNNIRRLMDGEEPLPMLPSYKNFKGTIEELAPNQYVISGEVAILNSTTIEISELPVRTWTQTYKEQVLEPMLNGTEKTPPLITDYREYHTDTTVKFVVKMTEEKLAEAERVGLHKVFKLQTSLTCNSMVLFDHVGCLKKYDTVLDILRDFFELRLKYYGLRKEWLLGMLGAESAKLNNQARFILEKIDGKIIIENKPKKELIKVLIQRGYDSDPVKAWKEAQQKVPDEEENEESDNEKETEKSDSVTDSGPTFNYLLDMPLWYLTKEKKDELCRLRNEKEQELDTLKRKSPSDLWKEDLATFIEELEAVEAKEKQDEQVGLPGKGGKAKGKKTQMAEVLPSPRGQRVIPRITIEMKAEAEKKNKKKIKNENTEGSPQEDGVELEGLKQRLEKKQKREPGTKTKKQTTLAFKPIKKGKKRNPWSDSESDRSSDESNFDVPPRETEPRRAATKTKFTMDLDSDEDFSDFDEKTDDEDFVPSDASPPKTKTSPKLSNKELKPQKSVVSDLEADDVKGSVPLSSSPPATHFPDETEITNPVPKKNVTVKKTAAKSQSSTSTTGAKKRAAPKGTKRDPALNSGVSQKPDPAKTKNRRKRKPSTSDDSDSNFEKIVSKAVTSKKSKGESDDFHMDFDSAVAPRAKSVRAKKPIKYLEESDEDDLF

[13] = biological target: DNA topoisomerase 2-alpha (Homo sapiens) (UniProt P11388); assay: Inhibition of human DNA topoisomerase II alpha assessed as residual activity at 10 uM using supercoiled pNO1 plasmid as substrate incubated for 30 mins by diamond dye staining based fluorescence microplate reader assay relative to control

Row | SMILES | Activity [1] [%] | MIC90 [3] [µM] | MIC90 [4] [µM] | MIC90 [5] [µM] | also measured
1 | CO[C@H]1/C=C/O[C@@]2(C)Oc3c(C)c(O)c4c(O)c(c(/C=N/N5CCN(C)CC5)c(O)c4c3C2=O)NC(=O)/C(C)=C\C=C\[C@H](C)[C@H](O)[C@@H](C)[C@@H](O)[C@@H](C)[C@H](OC(C)=O)[C@@H]1C [RIFAMPIN] | 1.4 |  |  |  | Activity [2]: 100%
2 | C[C@H]1COc2c(N3CCN(C)CC3)c(F)cc3c(=O)c(C(=O)O)cn1c23 [LEVOFLOXACIN ANHYDROUS] | 2.3 |  |  |  | 
3 | Cc1[nH]c(C(=O)Nc2nc3c(OC(CN4CC[N+](C)(C)CC4)c4ccccc4)cc(C(=O)O)cc3s2)c(Cl)c1Cl (stereo unspecified) |  | 0.32 | 0.63 | 0.31 | Activity [6]: inactive
4 | Cc1[nH]c(C(=O)Nc2nc3c(OC(CN4CCOCC4)C4CC4)cc(C(=O)O)cc3s2)cc1F (stereo unspecified) |  | 2.5 (≈ 1.22 µg/mL) | 1.25 (≈ 0.611 µg/mL) | > 20 | MIC90 [7]: > 131 µM; MIC90 [6]: 131 µM (≈ 64 µg/mL); MIC90 [8]: > 131 µM; MIC90 [9]: > 131 µM; MIC90 [10]: 33 µM (≈ 16.1 µg/mL); MIC90 [11]: > 131 µM
5 | NNC(=O)c1ccncc1 [ISONIAZID] | 4.9 |  |  |  | 
6 | Cc1[nH]c(C(=O)Nc2nc3c(OC(CN4CCN(C)CC4)C4CC4)cc(C(=O)O)cc3s2)c(Cl)c1Cl (stereo unspecified) |  | 0.63 (≈ 0.348 µg/mL) | 0.63 (≈ 0.348 µg/mL) | 5 (≈ 2.76 µg/mL) | MIC90 [7]: > 116 µM; MIC90 [6]: 14 µM (≈ 7.73 µg/mL); MIC90 [8]: > 116 µM; MIC90 [9]: > 116 µM; MIC90 [10]: 7 µM (≈ 3.87 µg/mL); MIC90 [11]: > 116 µM; Activity [12]: 99%; Activity [13]: 99%
7 | Cc1[nH]c(C(=O)Nc2nc3c(OC(CN)c4ccccc4)cc(C(=O)O)cc3s2)c(Cl)c1Cl (stereo unspecified) |  | 1.25 (≈ 0.632 µg/mL) | 0.63 (≈ 0.318 µg/mL) | 1.25 (≈ 0.632 µg/mL) | 
8 | Cc1[nH]c(C(=O)Nc2nc3c(OC(CN4CCOCC4)c4ccccc4)cc(C(=O)O)cc3s2)cc1F (stereo unspecified) |  | 10 (≈ 5.25 µg/mL) | 2.5 (≈ 1.31 µg/mL) | > 40 | Activity [6]: inactive
9 | Cc1[nH]c(C(=O)Nc2nc3c(OC(CN4CCC(N(C)C)CC4)c4ccccc4)cc(C(=O)O)cc3s2)c(Cl)c1Cl (stereo unspecified) |  | 5 (≈ 3.08 µg/mL) | 2.5 (≈ 1.54 µg/mL) | 10 (≈ 6.17 µg/mL) | 
10 | Cc1[nH]c(C(=O)Nc2nc3c(OC(CN(C)C)c4ccccc4)cc(C(=O)O)cc3s2)c(Cl)c1Cl (stereo unspecified) |  | 0.16 (≈ 0.0853 µg/mL) | 0.63 (≈ 0.336 µg/mL) | 1.25 (≈ 0.667 µg/mL) | 
